What was measured:
PPARγ-LBD [1] = target: T1, PPARγ-LBD (Homo sapiens, UniProt P37231); assay: Thermal stability assay using circular dichroism spectroscopy; type: binding; parameters: PPARγ-LBD (amino acids 203–477 in isoform 1); His tag (pET28a) (N); made in house; host or cells: Rosetta (DE3) pLysS (E. coli); conditions: CD at 222 nm, 10 µM LBD; for Effect on Tm of PPARγ-LBD (in words): GW1929 at 10 µM
T1 sequence (P37231 203-477 isoform P37231-2): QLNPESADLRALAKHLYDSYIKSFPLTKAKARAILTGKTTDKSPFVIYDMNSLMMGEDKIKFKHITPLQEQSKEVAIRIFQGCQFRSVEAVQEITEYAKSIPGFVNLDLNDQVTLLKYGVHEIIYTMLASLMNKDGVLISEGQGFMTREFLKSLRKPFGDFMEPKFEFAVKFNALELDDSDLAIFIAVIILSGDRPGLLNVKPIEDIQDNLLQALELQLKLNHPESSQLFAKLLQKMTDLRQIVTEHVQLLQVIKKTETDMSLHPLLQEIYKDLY
Description: PPARα/δ/γ-LBD proteins (10 µM) were incubated with different concentrations of ligands in buffer C consisting of 20 mM Tris-HCl (pH 8.0), 150 mM NaCl, 1 mM Tris 2-carboxyethylphosphine (TCEP)-HCl, and 10% glycerol. The circular dichroism (CD) spectra were monitored within a 200–260 nm range at increasing temperatures from 30 °C to 70 °C (2 °C/min) using a J-1500 spectropolarimeter equipped with a PTC-510 thermal controller (JASCO, Tokyo, Japan). […] The ligand-induced increases in the Tm values were defined as ∆Tm.
Nuclear receptors, including PPARs, display an increased thermal stability upon ligand binding, which is detectable through CD spectroscopy.
Figure 3 Circular dichroism-based PPARα/δ/γ-LBD thermal stability assay. […] Data are presented as the mean ± SE of three or four (in parentheses) independent experiments. Differences vs. basal levels (with 0.1% DMSO) were statistically assessed by one-way ANOVA, followed by a Dunnett’s post hoc test: * p < 0.05, ** p < 0.01, and *** p < 0.001.

PPARγ-LBD [2] = target: T1, PPARγ-LBD; assay: TR-FRET PGC1α coactivator recruitment assay; type: biochemical; parameters: PPARγ-LBD (amino acids 203–477 in isoform 1); made in house; host or cells: Rosetta (DE3) pLysS (E. coli); conditions: PGC1α peptide, read-out: EC50, PGC1α recruitment to PPARγ-LBD
Description: (§1) Subsequently, 5 µL of 4 nM Eu-W1024-labeled anti-6×His antibody/80 nM ULight-Streptavidin (PerkinElmer) was added to each well, and the microplate was incubated in the dark for 2 h, at room temperature. […] The nonlinear fitting and the calculation of the EC50 were performed using the Prism 9 software (GraphPad, San Diego, CA, USA).
(§2) The ligand-bound activated forms of PPARs are stabilized by associations with specific coactivators, thereby enabling the regulation of specific gene expression.
(§3) Figure 2 TR-FRET-based LBD-mediated human PPARα/δ/γ coactivator recruitment assay. […] Data are presented as the mean ± SE of three or four independent experiments with duplicate samples, and the calculated EC50 values are shown.

PPARα-LBD = target: T2, PPARα-LBD (Homo sapiens, UniProt Q07869); assay: TR-FRET SRC1 coactivator recruitment assay; type: biochemical; parameters: Human PPARα-LBD (amino acids 200–468); made in house; host or cells: Rosetta (DE3) pLysS (E. coli); conditions: for EC50: TR-FRET, SRC1 peptide, read-out: EC50, SRC1 recruitment to PPARα-LBD
T2 sequence (Q07869 200-468): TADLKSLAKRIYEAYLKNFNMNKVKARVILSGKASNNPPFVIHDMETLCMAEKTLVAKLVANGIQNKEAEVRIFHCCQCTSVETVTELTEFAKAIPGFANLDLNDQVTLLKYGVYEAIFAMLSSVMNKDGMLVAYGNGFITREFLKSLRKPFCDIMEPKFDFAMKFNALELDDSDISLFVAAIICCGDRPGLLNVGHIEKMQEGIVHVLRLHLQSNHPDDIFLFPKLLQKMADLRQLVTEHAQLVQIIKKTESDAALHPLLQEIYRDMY
Description: as §1, §2, §3

PPARγ-LBD [3] = target: T1, PPARγ-LBD; assay: TR-FRET SRC1 coactivator recruitment assay; type: biochemical; parameters: PPARγ-LBD (amino acids 203–477 in isoform 1); made in house; host or cells: Rosetta (DE3) pLysS (E. coli); conditions: SRC1 peptide, read-out: EC50, SRC1 recruitment to PPARγ-LBD
Description: as §1, §2, §3

PPARδ-LBD = target: T3, PPARδ-LBD (Homo sapiens, UniProt Q03181); assay: TR-FRET PGC1α coactivator recruitment assay; type: biochemical; parameters: PPARδ-LBD (amino acids 170–441); made in house; host or cells: Rosetta (DE3) pLysS (E. coli); conditions: for EC50: TR-FRET, PGC1α peptide, read-out: EC50, PGC1α recruitment to PPARδ-LBD
T3 sequence (Q03181 170-441): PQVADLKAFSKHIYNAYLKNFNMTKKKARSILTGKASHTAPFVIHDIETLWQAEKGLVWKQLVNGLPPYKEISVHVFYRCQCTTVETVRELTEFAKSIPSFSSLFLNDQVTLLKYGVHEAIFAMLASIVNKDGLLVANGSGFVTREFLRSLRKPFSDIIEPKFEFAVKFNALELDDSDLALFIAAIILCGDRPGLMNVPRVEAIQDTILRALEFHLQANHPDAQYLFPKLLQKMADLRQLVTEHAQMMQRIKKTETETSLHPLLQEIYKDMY
Description: as §1, §2, §3

Compound | Effect on Tm of PPARγ-LBD (in words) (PPARγ-LBD [1]) | EC50 (PPARγ-LBD [2]) [µM] | Efficacy, SRC1 recruitment to PPARα-LBD (PPARα-LBD; 100% = 1 µM GW7647) [%] | EC50 (PPARα-LBD) [µM] | EC50 (PPARγ-LBD [3]) [µM] | EC50 (PPARδ-LBD) [µM] | Relative ∆Tm response, PPARγ-LBD (highest value) (PPARγ-LBD [1]; 100% = ∆Tm by 10 µM GW1929) [%] | Efficacy, PGC1α recruitment to PPARδ-LBD (PPARδ-LBD; 100% = 1 µM GW501516) [%]
CSc1ccc(C(=O)/C=C/c2cc(C)c(OC(C)(C)C(=O)O)c(C)c2)cc1 [elafibranor] | did not significantly alter the Tm values | 15.5 | 59.2 | 4.95 | 11.8 | – | – | –
O=C(O)CCCc1cc2cc(Cl)ccc2n1S(=O)(=O)c1ccc2ncsc2c1 [lanifibranor] | increased the Tm values | 4.65 | – | 13.8 | 7.57 | 3.86 | 61.4 | –
CCO[C@@H](Cc1ccc(OCCn2c(C)ccc2-c2ccc(SC)cc2)cc1)C(=O)O [saroglitazar] | highly increased the Tm values | 1.03 | – | 1.04 | 3.44 | > 100 | – | –
CCO[C@H](COc1ccc(C(F)(F)F)cc1)CSc1ccc(OCC(=O)O)c(C)c1 [seladelpar] | increased the Tm values | 19.4 | – | > 1 | > 300 | 0.0307 | – | 124
